Results from patent US8450527B2, “Amine derivative compounds for treating ophthalmic diseases and disorders” (Acucela Inc., priority 2007, dated 2013).

Target: T1, visual cycle isomerase (Mus musculus, UniProt Q91ZQ5)
T1 construct: The recovery of 11-cis-retinal after bleaching can be used to estimate the activity of isomerase in vivo; from tissue; host or cells: eye (RPE) of living CD-1 albino male mice
T1 sequence (Q91ZQ5 1-533): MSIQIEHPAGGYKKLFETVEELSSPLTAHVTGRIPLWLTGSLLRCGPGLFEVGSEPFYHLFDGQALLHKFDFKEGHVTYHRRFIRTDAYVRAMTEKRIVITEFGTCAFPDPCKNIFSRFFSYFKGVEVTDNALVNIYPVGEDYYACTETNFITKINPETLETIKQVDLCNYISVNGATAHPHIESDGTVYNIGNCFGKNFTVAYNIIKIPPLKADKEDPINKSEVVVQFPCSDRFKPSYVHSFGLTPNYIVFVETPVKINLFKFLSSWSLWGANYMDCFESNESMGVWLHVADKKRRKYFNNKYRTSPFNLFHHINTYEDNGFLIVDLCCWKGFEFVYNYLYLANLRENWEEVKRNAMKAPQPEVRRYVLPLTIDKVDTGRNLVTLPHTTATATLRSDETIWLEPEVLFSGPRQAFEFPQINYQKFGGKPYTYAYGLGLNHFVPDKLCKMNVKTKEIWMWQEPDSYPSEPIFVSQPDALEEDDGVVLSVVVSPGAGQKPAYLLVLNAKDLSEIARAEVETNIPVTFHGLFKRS
Assay: in vivo murine isomerase assay: recovery of 11-cis-retinal (oxime) after photobleaching
Protocol: FIG. 1 illustrates isomerase inhibitory activity of the compound of Example 3 (Compound 3). The animals were orally gavaged with 1 mg/kg compound, then “photo-bleached” (5000 Lux white light for 10 minutes) at 4, 24 and 48 hours after dosing, and returned to darkness to allow recovery of the 11-cis-retinal content of the eyes. Mice were sacrificed 2 hours after bleaching, eyes were enucleated, and retinoid content was analyzed by HPLC.
FIG. 2 illustrates concentration-dependent inhibition of isomerase activity by the compound of Example 19 (Compound 19). […] Five animals were included in each treatment group. The error bars correspond to standard error.
A method for determining the effect of a compound on isomerase activity may be performed in vitro as described herein and in the art (Stecher et al., J Biol Chem 274:8577-85 (1999); see also Golczak et al., Proc. Natl. Acad. Sci. USA 102:8162-67 (2005)). Retinal pigment epithelium (RPE) microsome membranes isolated from an animal (such as bovine, porcine, human, for example) may serve as the source of the isomerase. The capability of the amine derivative compounds to inhibit isomerase may also be determined by an in vivo murine isomerase assay. Brief exposure of the eye to intense light (“photobleaching” of the visual pigment or simply “bleaching”) is known to photo-isomerize almost all 11-cis-retinal in the retina. […]

inhibition of 11-cis retinal (oxime) recovery (FIG. 2A/2B, dose response): dose related
ED50 (mouse, read-out: ED50 (dose of compound that gives 50% inhibition of 11-cis retinal (oxime) recovery), FIG. 2, five animals per treatment group, estimated from dose response): ~0.651 mg/kg
Compound: CCCC(O)(CCC)CCc1cccc(C(O)CCN)c1 (centres unmarked) [Example 19, 4-(3-(3-amino-1-hydroxypropyl)phenethyl)heptan-4-ol]
